We go through one compound from patent US12187707B2, “Pharmaceutical formulations of N-(2-(2-(dimethylamino)ethoxy)-4-methoxy-5-((4-(1-methyl-1H-indol-3-yl)pyrimidin-2-yl)amino)phenyl)acrylaminde and salts thereof” (Beta Pharma, Inc., priority 2017, dated 2025).

This series in a line: Stability testing of Formulation 1 and 1·Ms by HPLC (assay and total related substances) after storage in a stability chamber. Format: physicochemical. Here is the method: Microcrystalline cellulose (392.43 mg), dicalcium phosphate (735.35 mg), sodium starch glycolate (45.09 mg), silicon dioxide (15.03 mg), and magnesium stearate (15.03 mg) were combined and blended with a vortex mixer in the amounts and proportions indicated in Table 1. The resulting mixture was filtered through a #35 mesh sieve to give Mixture A. A 20.05 mg portion of Mixture A was combined with 5.0 mg of 1·Ms (C27H30N6O3·1.06 CH3SO3H, purity=100%) of crystalline Form 2A in a 40 mL glass vial and blended thoroughly with a vortex mixer to afford Formulation 1, which has a theoretical composition as calculated in Table 1.
All samples were stored in a stability chamber at temperatures of −20° C., 50° C., and at 40° C./75% relative humidity for 2-week and 4-week periods and analyzed for stability. Closed-dish samples were capped and sealed with Parafilm. Open-dish samples were covered by aluminum foil that was pierced with a pinhole.
After reaching room temperature, each sample was added to a 40 mL sample vial containing 10 mL of diluent (0.05% TFA in H2O:MeCN=1:1 v/v) and sonicated for 10 minutes with occasional shaking. All samples were centrifuged at 14,000 rpm for 10 minutes and the supernatant was analyzed by HPLC. The working standard solution (5 mg of 1 Ms in 10 mL of diluent) was used as a reference. Results for Formulation 1 are shown in Table 3, in which purity is measured as percent (%) versus total related substances (TRS). As shown in […] and FIGS. 7 to 9, Formulation 1 was stable over an extended period.

Where [1] appears, read: 40° C. @ 75% relative humidity, 2 weeks.
Where [2] appears, read: 40° C. @ 75% relative humidity, 4 weeks.

Consider `C=CC(=O)Nc1cc(Nc2nccc(-c3cn(C)c4ccccc34)n2)c(OC)cc1OCCN(C)C` [1 · Ms, N-(2-(2-(Dimethylamino)ethoxy)-4-methoxy-5-((4-(1-methyl-1H-indol-3-yl)pyrimidin-2-yl)amino)phenyl)acrylamide methanesulfonate (1:1)], for which the Assay reads like this: under setting [1], 101.1%; under setting [2], 99.3%; (50° C., 2 weeks) 101.4%; (50° C., 4 weeks) 99.9%; (Initial) 100.2%. In addition, the “TRS (total related substances)” value reads like this: under setting [1], 0.00%; under setting [2], 0.00%; (50° C., 2 weeks) 0.00%; (50° C., 4 weeks) 0.00%; (Initial) 0.00%.
